Assay results: US20040209907A1, “Formulation and methods for the treatment of thrombocythemia” (priority 2003, published 2004)
“And” between values parts separate entries of the source, which are not always exact repeats. Equal entries are not always repeated. Where two headings read alike, the source gives them in different places.

Legend:
[1] = dog, in vivo
Procedure: (§1) A study was conducted in a large group of dogs comparing metabolite A with the standard reference inotrope milrinone.

platelet = test: Therapeutic platelet lowering action
PDE III = PDE III activity of anagrelide and metabolite A; type: biochemical
Procedure: Inhibition of PDE III, which is present in myocardium, causes an increase in both the force and rate of cardiac contractility. These are undesirable side effects for a platelet reducing agent.
The PDE III activity of both anagrelide and metabolite A was evaluated by standard methods.

[2] = Cardiovascular study in dogs comparing metabolite A with milrinone
Procedure: as §1

[3] = Plasma levels of anagrelide and metabolite A after oral, intra-venous and transdermal anagrelide in the mini-pig; type: in vivo; settings: for AUC / Cmax: mini-pig n=3, plasma analyte = label
Procedure: The plasma level of anagrelide and metabolite A were measured in a mini-pig study following oral, intra-venous and transdermal administration of anagrelide.
The comparative bioavailability of anagrelide following oral administration of 1 mg or the dermal application of a saturated solution to ˜45 cm2 surface area of the back was assessed in three minipigs. Standard AgrylinR capsules (2×0.5 mg) were administered orally to fasted animals, whereas the dermal formulation was a saturated solution of the drug in 5% (v/v) oleic acid in propylene glycol.
Plasma concentrations of anagrelide and its metabolites were determined by a validated LC-MS/MS assay. Pharmacokinetic parameters were calculated by non-compartmental methods using WinNonlin.
Studies in the Mini-Pig (n=3)

[4] = Pharmacokinetics in healthy male volunteers after a single dose of anagrelide; settings: healthy male volunteers N=38; single 1 mg oral dose of anagrelide; analyte = label
Description: Summary of mean Pharmacokinetic Parameters of Anagrelide in Volunteers after a Single Dose of the Drug

[5] = Permeation of anagrelide from saturated solutions through human epidermis (Franz-type diffusion cells); type: in vitro ADME; settings: for Amt permeated at 24 hours: human epidermis
CD34+ cells = test: Megakaryocyte number in thrombopoietin-expanded CD34+ cell cultures; type: cell-based; settings: for effect on number of megakaryocytes: day-8 cultures; for number of megakaryocytes: day-12 cultures
Description: Cells were harvested for analysis after 4 or 8 days of the initiation of drug treatment (day-8 and day-12 cultures, respectively). As shown in FIG. 2 in day-8 cultures no effect of anagrelide could be detected.

[6] = Permeation of anagrelide from saturated solutions through human epidermis (Franz-type diffusion cells); type: in vitro ADME
Procedure: Saturated Solutions of Anagrelide were Prepared in:
1. 5% lauryl alcohol in isopropyl myristate (LA in IPM)
2. 2% oleic acid in propylene glycol (OA in PG)
3. 0.5% oleic acid in propylene glycol
4. 5% glyceryl monooleate in isopropyl myristate (GMO in IPM)
5. 5% glyceryl laurate in isopropyl myristate (GLA in IPM)
9. Isopropyl myristate (IPM)
11. 5% oleic acid (OA) in propylene glycol (PG)
12. 70:30 (v/v) dimethyl sulfoxide: propylene glycol
An analytical method using HPLC with UV detection was established for anagrelide. Six point calibration curves were generated over the range 0.2-2 μg/ml were generated for each analytical run and the precision confirmed on each occasion by the making at least 7 replicate injections of the highest standard. Details of the equipment and methods used are given below.
Human epidermis was prepared by the heat separation technique (A. M. Kligman and E Christophers, Preparation of isolated sheets of human stratum corneum. Arch Dermatol., vol. 88, 70-73 (1963). Water was heated to 60° C. on a hotplate and the skin was immersed in the water at this temperature for 1 minute. The skin was then removed from the water and the epidermis carefully peeled off using blunt tweezers. Care was taken not to introduce any holes in this process. The epidermal tissue was placed on a filter paper stratum corneum uppermost. The samples were then stored in freezer.
Franz-type horizontal glass diffusion cells were used. The receptor medium was thermostatted at 37° C., to represent body temperature. There will be a temperature gradient across the membrane and applied solution, but this should simulate ‘in use’ conditions. Under these conditions the surface temperature of the skin was 32° C.
The skin samples were thawed overnight before use. The epidermal membranes were cut to size and were placed between the two halves of the cells. High vacuum grease was used to seal the two compartments. The cell was clamped using a metal holder. The receptor arm was closed using glass caps to prevent evaporation. The donor compartment was occluded to prevent any donor solution evaporation
The receptor medium was first introduced and equilibrated for 1 h. 1 mL of the saturated solution with excess drug was applied in the donor compartment. Excess drug was used to ensure there is no depletion of the drug during the course of the experiment. The starting time was taken as the time at which the solutions were applied.
At set sampling points (12, 24, 30, 36 and 48 hours), 200 μL of the receptor phase from each diffusion cell was removed for analysis of the anagrelide and replaced by an equivalent of fresh receptor phase solution pre-thermostatted to 37° C.
For each solution, six replicates were tested. A control (without any formulation applied in the donor compartment) was also examined.

[7] = Pharmacokinetics in patients with myeloproliferative disease at steady state; settings: patients N=18, multiple dosing, analyte = label
[8] = anagrelide Dermal, saturated solution in 5% OA in PG, ~45 cm2, 24 h
[9] = anagrelide Intra-venous 1 mg/propylene glycol

O=C1NC2=Nc3ccc(Cl)c(Cl)c3CN2C1O (stereo not drawn) [Metabolite A]
effect on (+)dP/dt max (a measure of contractility) [1]: well sustained and largely dose-dependent
maximum decrease in mean blood pressure [1]: about 30 mmHg
mean maximum increase in heart rate [1]: ~66 b.p.m.
potency relative to milrinone in decreasing mean blood pressure [1]: 10 ×
therapeutic platelet lowering action relative to anagrelide (platelet): equipotent
potency relative to anagrelide as an inhibitor of PDEIII (PDE III; earlier in vitro studies): 40 fold
PDE III potency relative to anagrelide (PDE III; standard methods): 40 ×
potency as a cardiovascular agent relative to anagrelide (PDE III; statement): ~40 times

Cc1[nH]c(=O)c(C#N)cc1-c1ccncc1 [milrinone]
effect on (+)dP/dt max (a measure of contractility) [2]: immediate, dose-dependent increases in (+)dP/dt max, but they were not well sustained
maximum decrease in mean blood pressure ([2]; dose-dependent): about 30 mmHg
mean maximum increase in heart rate ([2]; dose-dependent): ~76 b.p.m.

O=C1CN2Cc3c(ccc(Cl)c3Cl)N=C2N1 [Anagrelide]
AUC [3, 8]: 10.8 ng·h/mL
Cmax [3, 8]: 0.69 ng/mL
AUC [3, 9]: 50.7 ng·h/mL
Cmax [3, 9]: 87.1 ng/mL
AUC ([3]; anagrelide Oral 1 mg/capsule): 10.3 ng·h/mL
Cmax ([3]; anagrelide Oral 1 mg/capsule): 1.45 ng/mL
decline in concentrations post-peak prior to wash-off at 24 h ([3]; mini-pig, dermal application): 50%
average dermal flux ([3]; mini-pig, dermal saturated solution in 5% oleic acid in propylene glycol, estimated): 197 ng/cm2/h
maximum plasma concentration lower following dermal application versus oral ([3]; mini-pig, dermal versus oral 1 mg): 50%
exposure to anagrelide, dermal versus oral route ([3]; mini-pig, oral 1 mg versus dermal saturated solution): comparable exposure
AUC0-inf ± RSD (%) [4]: 11.1 ± 37.6 ng·h/mL
Cmax ± RSD (%) [4]: 4.99 ± 74.4 ng/mL
Tmax ± RSD (%) [4]: 1.3 ± 53.8 h
t1/2 ± RSD (%) [4]: 1.5 ± 49.8 h
Cav from the maximum likely flux rate through human skin ([5]; calculated for transdermal delivery in man): 3 to 4 ng/mL
Amt permeated at 24 hours ([5]; saturated solution in 0.5% OA in PG): 0.5 μg/cm^2
Amt permeated at 24 hours ([5]; saturated solution in 70:30 DMSO:PG ('gold standard')): 8.4 μg/cm^2
Amt permeated at 24 hours ([5]; saturated solution in 70:30 DMSO:PG ('gold standard'), listed as anagrelide): 8.41 μg/cm^2
Amt permeated at 24 hours ([5]; saturated solution in Ethanol): 0.9 μg/cm^2
Amt permeated at 24 hours ([5]; saturated solution in Formulation 1 (Labrasol, Plurol Oleique, Labrafac Lipophile, propylene glycol)): 2.1 μg/cm^2
Amt permeated at 24 hours ([5]; saturated solution in Formulation 2 (Labrafil M 1944CS, Labrafac Lipophile, Labrasol, Plurol oleique, water)): 1.5 μg/cm^2
Amt permeated at 24 hours ([5]; saturated solution in Glycerol): 0.04 μg/cm^2
Amt permeated at 24 hours ([5]; saturated solution in PG (propylene glycol)): 0.5 μg/cm^2 and 0.54 μg/cm^2
Amt permeated at 24 hours ([5]; saturated solution in PG (propylene glycol), listed as anagrelide): 0.5 μg/cm^2
Amt permeated at 24 hours ([5]; saturated solution in Transcutol): 0.0 μg/cm^2 and 0 μg/cm^2
Amt permeated at 24 hours ([5]; saturated solution in Triacetin): 0.0 μg/cm^2 and 0 μg/cm^2
effect on number of megakaryocytes (CD34+ cells; continuous exposure to 4 ng/ml anagrelide (~13 nM)): no effect
number of megakaryocytes (CD34+ cells; continuous exposure to 4 ng/ml anagrelide (~13 nM), p=0.038, n=3): 77±5 % of control
effect on number of megakaryocytes (CD34+ cells; single dose of 40 ng/ml anagrelide (~133 nM)): no effect
number of megakaryocytes (CD34+ cells; single dose of 40 ng/ml anagrelide (~133 nM), p=0.015, n=3): 68±4 % if control
Amt permeated at 24 hours ([6]; saturated solution in 2% OA in PG): 8.9 μg/cm^2
Amt permeated at 24 hours ([6]; saturated solution in 5% GLA in IPM): 5.2 μg/cm^2
Amt permeated at 24 hours ([6]; saturated solution in 5% GMO in IPM): 5.7 μg/cm^2
Amt permeated at 24 hours ([6]; saturated solution in 5% LA in IPM): 0.5 μg/cm^2
Amt permeated at 24 hours ([6]; saturated solution in 5% OA in PG): 4.4 μg/cm^2
Amt permeated at 24 hours ([6]; saturated solution in IPM (isopropyl myristate)): 1.5 μg/cm^2
AUC0-t ± RE (AUC over dosage interval) [7]: 18.64(5.28) ng · h/mL
Cmax ± RE [7]: 5.31(1.33) ng/mL
Tmax ± RE [7]: 2.00(0.32) hours
t1/2 ± RE [7]: 2.89(0.73) hours
